Laboratory results: ChEMBL document CHEMBL3885881, “DrugMatrix”

Species: Rattus norvegicus
Assay: DrugMatrix - Regimen: Daily Repeat
Assay type: toxicity, organism-based, Sprague-Dawley
Set-up: regimen Daily Repeat, gender Male, age 6-8 weeks
Settings: in vivo, po, 5 mg/kg, route oral GAVAGE, dose level Low, vehicle .5 % CMC; for ABSOLUTE BASOPHIL / ABSOLUTE EOSINOPHIL / ABSOLUTE LYMPHOCYTE / ABSOLUTE MONOCYTE / ABSOLUTE SEGMENTED NEUTROPHIL / BASOPHIL / EOSINOPHIL / ERYTHROCYTE COUNT / HEMATOCRIT / HEMOGLOBIN / LEUKOCYTE COUNT / LYMPHOCYTE / MEAN CORPUSCULAR HEMOGLOBIN / MEAN CORPUSCULAR HEMOGLOBIN CONCENTRATION / MEAN CORPUSCULAR VOLUME / MONOCYTE / NEUTROPHIL / NUCLEATED RED BLOOD CELLS / PLATELET COUNT: tissue Blood; for ALANINE AMINOTRANSFERASE / ALBUMIN / ALKALINE PHOSPHATASE / ASPARTATE AMINOTRANSFERASE / BLOOD UREA NITROGEN / CARBON DIOXIDE / CHLORIDE / CHOLESTEROL / CREATINE PHOSPHOKINASE / CREATININE / GLUCOSE / LACTATE DEHYDROGENASE / LIPASE / PHOSPHORUS / POTASSIUM / SODIUM / TOTAL BILIRUBIN / TOTAL PROTEIN / URIC ACID: tissue Plasma

## COc1cc(CNC(=O)CCCC/C=C/C(C)C)ccc1O [CAPSAICIN]
72 h, time 3 day
  ABSOLUTE BASOPHIL: 0 CELLS/uL
  ABSOLUTE EOSINOPHIL: 231.67 CELLS/uL
  ABSOLUTE LYMPHOCYTE: 12823.67 CELLS/uL
  ABSOLUTE MONOCYTE: 176.33 CELLS/uL
  ABSOLUTE SEGMENTED NEUTROPHIL: 735 CELLS/uL
  BASOPHIL: 0%
  EOSINOPHIL: 1.33%
  ERYTHROCYTE COUNT: 5.55 x10E6/uL
  HEMATOCRIT: 34.43%
  HEMOGLOBIN: 12.97 G/DL
  LEUKOCYTE COUNT: 13.97 x10E3/uL
  LYMPHOCYTE: 92%
  MEAN CORPUSCULAR HEMOGLOBIN: 23.37 pg
  MEAN CORPUSCULAR HEMOGLOBIN CONCENTRATION: 37.63 G/DL
  MEAN CORPUSCULAR VOLUME: 62.03 fL
  MONOCYTE: 1.33%
  NEUTROPHIL: 5.33%
  NUCLEATED RED BLOOD CELLS: 0 /100WBC
  PLATELET COUNT: 1334 x10E3/uL
  ALANINE AMINOTRANSFERASE: 40.33 u/L
  ALBUMIN: 4.27 G/DL
  ALKALINE PHOSPHATASE: 433 u/L
  ASPARTATE AMINOTRANSFERASE: 75.33 u/L
  BLOOD UREA NITROGEN: 15 mg/dL
  CARBON DIOXIDE: 25.33 mmol/L
  CHLORIDE: 104.67 MEQ/L
  CHOLESTEROL: 57 mg/dL
  CREATINE PHOSPHOKINASE: 554.67 u/L
  CREATININE: 0.17 mg/dL
  GLUCOSE: 177.67 mg/dL
  LACTATE DEHYDROGENASE: 121 u/L
  LIPASE: 8 u/L
  PHOSPHORUS: 12.47 mg/dL
  POTASSIUM: 6.02 MEQ/L
  SODIUM: 145.37 MEQ/L
  TOTAL BILIRUBIN: 0.23 mg/dL
  TOTAL PROTEIN: 5.9 G/DL
  URIC ACID: 1.5 mg/dL
120 h, time 5 day
  ABSOLUTE BASOPHIL: 0 CELLS/uL
  ABSOLUTE EOSINOPHIL: 118.67 CELLS/uL
  ABSOLUTE LYMPHOCYTE: 14371.67 CELLS/uL
  ABSOLUTE MONOCYTE: 374.33 CELLS/uL
  ABSOLUTE SEGMENTED NEUTROPHIL: 1135.33 CELLS/uL
  BASOPHIL: 0%
  EOSINOPHIL: 0.67%
  ERYTHROCYTE COUNT: 5.31 x10E6/uL
  HEMATOCRIT: 33.03%
  HEMOGLOBIN: 12.53 G/DL
  LEUKOCYTE COUNT: 16 x10E3/uL
  LYMPHOCYTE: 89.67%
  MEAN CORPUSCULAR HEMOGLOBIN: 23.6 pg
  MEAN CORPUSCULAR HEMOGLOBIN CONCENTRATION: 37.93 G/DL
  MEAN CORPUSCULAR VOLUME: 62.17 fL
  MONOCYTE: 2.33%
  NEUTROPHIL: 7.33%
  NUCLEATED RED BLOOD CELLS: 0 /100WBC
  PLATELET COUNT: 1256.67 x10E3/uL
  ALANINE AMINOTRANSFERASE: 50 u/L
  ALBUMIN: 4.1 G/DL
  ALKALINE PHOSPHATASE: 314 u/L
  ASPARTATE AMINOTRANSFERASE: 93.67 u/L
  BLOOD UREA NITROGEN: 18.33 mg/dL
  CARBON DIOXIDE: 24.33 mmol/L
  CHLORIDE: 107.67 MEQ/L
  CHOLESTEROL: 68 mg/dL
  CREATINE PHOSPHOKINASE: 629.33 u/L
  CREATININE: 0.21 mg/dL
  GLUCOSE: 153 mg/dL
  LACTATE DEHYDROGENASE: 471.33 u/L
  LIPASE: 8.33 u/L
  PHOSPHORUS: 12.63 mg/dL
  POTASSIUM: 5.84 MEQ/L
  SODIUM: 145.1 MEQ/L
  TOTAL BILIRUBIN: 0.2 mg/dL
  TOTAL PROTEIN: 6.2 G/DL
  URIC ACID: 1.73 mg/dL
